The values that follow come from US9907791B2, “Ron inhibitors for use in preventing and treating bone loss” (UNIVERSITY OF UTAH RESEARCH FOUNDATION, priority 2014, dated 2018).

Structures are written as SMILES.

In assay [1] the test system is bone marrow osteoclasts. The experiment in a line: Osteoclast survival assay. It counts as cell-based, mice. Conditions: 10 μM Src inhibitor daily from day 7 for 48 hours, with MSP. The method, then:
Bone marrow precursor cells were thawed and seeded at a density of 2×10^5 cells per well in a 24-well plate containing glass coverslips in α-MEM media containing 10% FBS and antibiotics. After adhering overnight, media was removed and media containing 33 ng/mL hM-CSF and 9 ng/mL muRANKL was added. Cells were allowed to differentiate for 7 days with media changed every 3 days. Coverslips were then imaged microscopically using phase contrast to determine osteoclast number in each well. To test survival, factor-containing media was removed and α-MEM media containing 10% FBS was added as well as MSP as indicated. Cells were cultured for an additional 48 hours, fixed with 10% NBF for 10 minutes and washed with 1×PBS. For TRAP fluorescent staining, the leukocyte acid phosphatase kit (Sigma, St. Louis, Mo.) was used according to the manufacturer's instructions, with the substitution of 200 μM ELF97 (Invitrogen, Waltham, Mass.) as a phosphatase substrate. Coverslips were incubated in TRAP solution for 15 minutes at 37 degrees, washed with 1×PBS and counterstained with DAPI. The number of multinucleated TRAP+ cells (containing 4 or more nuclei) within 5 representative fields were included for quantification. Experiments were performed in triplicate.

The next assay has as its target RON (Homo sapiens, UniProt Q04912). Conditions: from the cited IC50 values; cited from earlier work.
A further assay relates to PyMT control tumor cells. Briefly: Intratibial PyMT control tumor-induced osteolysis. In kind it is in vivo, mice. Conditions: WT mice, treatment began 3 days post injection, sacrificed 42 days post injection. The text has this:
(§1) All procedures involving mice and experimental protocols were approved by the Institutional Animal Care and Use Committee (IACUC) of the University of Utah. The RonTK−/− mice which reside on the FVB background, were crossed with NOD.SCID mice for an immune-compromised mouse model. As a control, wild-type FVB mice were also crossed with NOD.SCID mice. The STK−/− mice, which are on a C57BL/6 background, were compared to wild-type C57BL/6 mice as controls. Mice for all experiments were 6 to 8 weeks of age. For intratibial injections, 1×10^5 (PyMTor DU4475) or 3×10^5 (MDA-MB-231) tumor cells were resuspended in 10 μL matrigel and injected into the right tibia of anesthetized female FVB (PyMT) or NOD.SCID mice carrying various alleles of RON. Osteolysis was assessed by X-ray radiography. Dissected hindlimbs from mice sacrificed at the final time point in each experiment were placed in the Kodak In-vivo Multispectral Imaging System FX and exposed to X-ray radiography at 35 kV for 100 sec. Excess tumor tissue was removed from the bones prior to X-ray. Osteolytic lesions were quantified using Image J software (NCBI). All images were compared to the contralateral leg as an internal control.
(§2) For in vivo experiments, the OSI-296 inhibitor was dissolved in 40% Trappsol with 0.01 M HCl, and mice were treated at a concentration of 200 mg/kg daily by oral gavage. […]

Assay [2] deals with bone marrow osteoclasts. Briefly: Osteoclast resorption assay. In kind it is cell-based, mice. Conditions: WT osteoclasts, inhibitors 10 μM or muRANK-Fc 10 μg/mL daily day 9 to 12. As for the experimental part: Bone marrow osteoclasts were generated from 6 to 8 week old WT and RonTK−/− mice. Briefly, bone marrow was isolated from hindlimb bones and plated in α-MEM media containing 10% heat-inactivated fetal bovine serum (FBS, Sigma, St. Louis, Mo.), 100 units/mL penicillin-streptomycin (Hyclone), and 33 ng/mL human macrophage colony-stimulating factor (hM-CSF) (PeproTech, Rocky Hill, N.J.) for 24 hours. Non-adherent cells were collected and frozen for later use. To assess resorption activity, bone marrow precursor cells were thawed and seeded at a density of 1×10^5 cells per well in BioCoat Osteologic slides (BD Biosciences, San Jose, Calif.) in α-MEM media containing 10% FBS and antibiotics. After adhering overnight, media was removed and media containing 33 ng/mL hM-CSF and 9 ng/mL muRANKL (R & D systems, Minneapolis, Minn.) was added. The medium was changed every 3 days depending on acidification, and the assay was terminated as indicated. Recombinant human MSP was prepared and added daily as indicated. Cells were removed with 6% bleach and slides were viewed microscopically using phase-contrast with 20× magnification. Osteolytic resorption area within 5 representative fields was determined using Image J software, experiments were performed in triplicate. […]

The next assay relates to PyMT-MSP tumor cells. Briefly: Intratibial PyMT-MSP tumor-induced osteolysis. In kind it is in vivo, mice.
Text: as §1
Hindlimb bones were excised from mice at the time of sacrifice and bones were fixed in 10% neutral-buffered formalin, decalcified in Formical-2000 (Decal Corporation, Tallman, N.Y.) for 8 days and embedded in paraffin for hematoxylin and eosin (H & E) or immunohistochemical staining. Osteoclast number was assessed as TRAP^+ multinucleated cells containing 4 or more nuclei and reported as TRAP^+ cells per field. Three sections per mouse and 5 fields per section were used for quantification with fields representing the entire length of the tibia. Tumor proliferation rate was reported as the number of cells which were positive for phospho-H3 staining compared to the number of unstained cells per field expressed as a percent. Three sections per mouse and 5 fields per section were used for quantification with analysis being restricted to within the bone marrow cavity. Immunohistochemical analysis was performed with heat-induced antigen retrieval in sodium-citrate buffer (Dako, Denmark). Primary antibodies used were anti-TRAP at 1:50 (Santa Cruz, sc-30833, Dallas, Tex.), anti-Ki67 at 1:100 (Santa Cruz, sc-12202S, Dallas, Tex.), anti-phosphoH3 at 1:100 (Cell Signaling, #9701, Beverly, Mass.), anti-NFATc1 at 1:50 (Santa Cruz, sc-13033, Dallas, Tex.), and anti-RON at 1:250 (Santa Cruz, sc-322, Dallas, Tex.). Bones from mice lacking RON were used as a negative control. Biotinylated secondary antibody was used with the EnVision^+ system HRP kit (Dako, Denmark) and nuclei counterstained with hematoxylin.
For in vivo experiments, the OSI-296 inhibitor was dissolved in 40% Trappsol with 0.01 M HCl, and mice were treated at a concentration of 200 mg/kg daily by oral gavage. Treatment began either 3 days after tumor cell injection for prophylactic experiments, or 3 weeks after tumor cell injection for therapeutic experiments. ASLAN002 was dissolved in 70% PEG400 with 1×PBS and mice were treated at a concentration of 50 mg/kg daily by oral gavage. muRANK-Fc was given at a concentration of 10 mg/kg every three days by intra-peritoneal injection. For the osteoporosis study, mice were treated beginning on the day after ovary removal. The treatment regimen for OSI-296 was 200 mg/kg every other day by oral gavage. ASLAN002 was administered at 50 mg/kg every other day by oral gavage. Treatment continued until the time of sacrifice at 28 days.

In assay [3] the test system is MSP-overexpressing MDA-MB-231 cells. Briefly: Intratibial MSP-overexpressing MDA-MB-231 tumor-induced osteolysis. In kind it is in vivo, NOD.SCID mice. Conditions: treated 3 days post tumor cell injection, sacrificed 30 days.
Text: as §1, §2

RON, sequence (Q04912 25-1400): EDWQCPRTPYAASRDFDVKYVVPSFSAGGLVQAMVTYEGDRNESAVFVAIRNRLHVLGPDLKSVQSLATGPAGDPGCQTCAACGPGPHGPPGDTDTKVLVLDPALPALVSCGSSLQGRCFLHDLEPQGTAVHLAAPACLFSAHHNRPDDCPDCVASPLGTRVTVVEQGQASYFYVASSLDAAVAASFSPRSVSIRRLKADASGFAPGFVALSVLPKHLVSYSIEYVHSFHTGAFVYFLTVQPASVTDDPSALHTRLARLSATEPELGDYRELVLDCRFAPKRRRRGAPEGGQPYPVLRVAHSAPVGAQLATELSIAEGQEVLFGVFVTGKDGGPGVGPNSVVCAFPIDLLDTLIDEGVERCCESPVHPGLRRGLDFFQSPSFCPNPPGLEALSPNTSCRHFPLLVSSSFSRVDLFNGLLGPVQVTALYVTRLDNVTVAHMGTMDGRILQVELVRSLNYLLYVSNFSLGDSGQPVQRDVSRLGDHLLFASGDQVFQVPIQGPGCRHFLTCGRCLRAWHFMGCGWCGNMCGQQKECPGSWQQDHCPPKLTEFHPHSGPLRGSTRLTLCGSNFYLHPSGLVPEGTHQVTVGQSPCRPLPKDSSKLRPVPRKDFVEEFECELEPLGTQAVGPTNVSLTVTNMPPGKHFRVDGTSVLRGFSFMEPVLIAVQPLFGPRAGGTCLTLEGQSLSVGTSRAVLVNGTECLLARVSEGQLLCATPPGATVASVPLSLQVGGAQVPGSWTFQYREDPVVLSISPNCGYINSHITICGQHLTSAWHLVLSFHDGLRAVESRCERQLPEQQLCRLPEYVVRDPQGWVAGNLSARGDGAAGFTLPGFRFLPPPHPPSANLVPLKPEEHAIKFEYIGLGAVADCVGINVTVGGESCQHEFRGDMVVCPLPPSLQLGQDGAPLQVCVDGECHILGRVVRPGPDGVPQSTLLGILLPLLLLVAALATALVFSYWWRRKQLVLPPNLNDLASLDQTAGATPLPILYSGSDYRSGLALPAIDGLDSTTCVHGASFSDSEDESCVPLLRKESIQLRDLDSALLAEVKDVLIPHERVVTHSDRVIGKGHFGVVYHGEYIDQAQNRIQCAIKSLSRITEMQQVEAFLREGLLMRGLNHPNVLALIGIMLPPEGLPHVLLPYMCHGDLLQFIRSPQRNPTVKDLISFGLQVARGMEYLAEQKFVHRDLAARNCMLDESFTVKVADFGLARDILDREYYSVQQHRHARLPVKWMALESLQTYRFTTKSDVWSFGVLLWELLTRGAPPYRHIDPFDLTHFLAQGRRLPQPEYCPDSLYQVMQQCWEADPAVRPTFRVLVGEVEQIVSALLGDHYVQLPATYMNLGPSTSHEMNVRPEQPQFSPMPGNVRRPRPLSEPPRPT

As to `CN1CCN(CCOc2cc(OC3CCOCC3)c3c(Nc4c(Cl)ccc5c4OCO5)ncnc3c2)CC1` [AZD0530], in the assay with bone marrow osteoclasts [1], the MSP-mediated osteoclast survival result is “blocked MSP-mediated survival”.
As to `C[C@@H](Oc1c(N)ncc2c(C3=CCN(C(N)=O)CC3)coc12)c1c(Cl)ccc(F)c1Cl` [OSI-296], the “selectivity between RON and Met” value at RON is recorded as “more selective for Met”. In the assay on PyMT control tumor cells, the “osteolysis from PyMT control tumors (no MSP)” value is on record as “did not have an effect”. In addition, in the assay with bone marrow osteoclasts [2], the “MSP-induced increase in osteoclast resorption (resorption area)” value was “dramatically reduced”. Besides, the inhibition of osteolysis in the assay on PyMT-MSP tumor cells (PyMT-MSP tumors, treatment beginning three days after tumor injection, average) is 4-6 fold. For the same compound, in the assay with PyMT-MSP tumor cells (TRAP staining of bone sections), the “TRAP+ osteoclasts in tumor-bearing bones” value is recorded as “no significant effect”. Also, the “PyMT-MSP tumor growth in the bone” value with PyMT-MSP tumor cells (caliper measurements) is listed as “reduced”. Further, the “PyMT-MSP tumor proliferation rate in the bone” value in the assay on PyMT-MSP tumor cells (percent cells positive for phospho-H3) is “reduced”. In the assay with PyMT-MSP tumor cells (post osteolysis treatment, about three weeks after tumor injection), the “progression of existing tumor-induced bone loss” value is listed as “prevent further tumor-induced bone loss”. For the same compound, the “osteolysis from MSP-expressing MDA-MB-231 tumor cells” value in assay [3] is recorded as “reduce MSP-mediated osteolysis to levels seen in control tumor cells”.
